# According to PubChem BioAssay (NCI):
#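 A five-concentration, 48-hour dose response in 96-well plates underlies each endpoint, interpolated linearly between surrounding concentrations. The concentration for 50% growth inhibition is given as GI50. TGI denotes the concentration required for complete inhibition of growth.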
# Tests used:
# Experiment in all cases: DTP human tumour cell line panel, 48 h
# [1] = tested on: 786-0 renal
# [2] = tested on: A498 renal
# [3] = tested on: A549 NSCLC
# [4] = tested on: ACHN renal
# [5] = tested on: BT-549 breast
# [6] = tested on: CAKI-1 renal
# [7] = tested on: CCRF-CEM leukemia
# [8] = tested on: COLO 205 colon
# [9] = tested on: DU-145 prostate
# [10] = tested on: EKVX NSCLC
# [11] = tested on: HCC-2998 colon
# [12] = tested on: HCT-116 colon
# [13] = tested on: HCT-15 colon
# [14] = tested on: HL-60(TB) leukemia
# [15] = tested on: HOP-62 NSCLC
# [16] = tested on: HOP-92 NSCLC
# [17] = tested on: HS 578T breast
# [18] = tested on: HT29 colon
# [19] = tested on: IGROV1 ovarian
# [20] = tested on: K-562 leukemia
# [21] = tested on: KM12 colon
# [22] = tested on: LOX IMVI melanoma
# [23] = tested on: M14 melanoma
# [24] = tested on: MALME-3M melanoma
# [25] = tested on: MCF7 breast
# [26] = tested on: MDA-MB-231 breast
# [27] = tested on: MDA-MB-435
# [28] = tested on: MDA-MB-468 breast
# [29] = tested on: MOLT-4 leukemia
# [30] = tested on: NCI-H226 lung
# [31] = tested on: NCI-H23 lung
# [32] = tested on: NCI-H460 lung
# [33] = tested on: NCI-H522 lung
# [34] = tested on: OVCAR-3 ovarian
# [35] = tested on: OVCAR-4 ovarian
# [36] = tested on: OVCAR-5 ovarian
# [37] = tested on: OVCAR-8 ovarian
# [38] = tested on: PC-3 prostate
# [39] = tested on: RPMI-8226 leukemia
# [40] = tested on: RXF 393 renal
# [41] = tested on: SF-268 CNS
# [42] = tested on: SF-295 CNS
# [43] = tested on: SF-539 CNS
# [44] = tested on: SK-MEL-2 melanoma
# [45] = tested on: SK-MEL-28 melanoma
# [46] = tested on: SK-MEL-5 melanoma
# [47] = tested on: SK-OV-3 ovarian
# [48] = tested on: SN12C renal
# [49] = tested on: SNB-19 CNS
# [50] = tested on: SNB-75 CNS
# [51] = tested on: SR leukemia
# [52] = tested on: SW-620 colon
# [53] = tested on: T-47D breast
# [54] = tested on: TK-10 renal
# [55] = tested on: UACC-257 melanoma
# [56] = tested on: UACC-62 melanoma
# [57] = tested on: UO-31 renal
# [58] = tested on: NCI/ADR-RES ovarian
structure (smiles),measurement,setting,value
CONC[C@]1(C)C=C2C(=O)[C@](C)(O)C3(CC3)C(C)=C2[C@H]1O,GI50,[1],1.65 µM
same,TGI,[1],6.9 µM
same,GI50,[2],2.23 µM
same,TGI,[2],5.39 µM
same,GI50,[3],0.324 µM
same,TGI,[3],11.3 µM
same,GI50,[4],0.233 µM
same,TGI,[4],0.565 µM
same,GI50,[5],1.02 µM
same,TGI,[5],4.67 µM
same,GI50,[6],1.05 µM
same,TGI,[6],18.8 µM
same,GI50,[7],0.57 µM
same,TGI,[7],6.66 µM
same,GI50,[8],1.48 µM
same,TGI,[8],3.21 µM
same,GI50,[9],0.436 µM
same,TGI,[9],16.5 µM
same,GI50,[10],1.77 µM
same,TGI,[10],4.85 µM
same,GI50,[11],1.38 µM
same,TGI,[11],3.4 µM
same,GI50,[12],0.298 µM
same,TGI,[12],46.4 µM
same,GI50,[13],0.384 µM
same,TGI,[13],> 100 µM
same,GI50,[14],0.485 µM
same,TGI,[14],6.44 µM
same,GI50,[15],1.63 µM
same,TGI,[15],4.55 µM
same,GI50,[16],0.705 µM
same,TGI,[16],4.32 µM
same,GI50,[17],2.55 µM
same,TGI,[17],7.26 µM
same,GI50,[18],0.42 µM
same,TGI,[18],6.66 µM
same,GI50,[19],1.6 µM
same,TGI,[19],8.01 µM
same,GI50,[20],0.661 µM
same,TGI,[20],> 100 µM
same,GI50,[21],2.32 µM
same,TGI,[21],15.4 µM
same,GI50,[22],0.868 µM
same,TGI,[22],6.63 µM
same,GI50,[23],1.41 µM
same,TGI,[23],4.87 µM
same,GI50,[24],1.05 µM
same,TGI,[24],2.49 µM
same,GI50,[25],0.298 µM
same,TGI,[25],5.34 µM
same,GI50,[26],1.75 µM
same,TGI,[26],5.88 µM
same,GI50,[27],1.84 µM
same,TGI,[27],3.9 µM
same,GI50,[28],0.518 µM
same,TGI,[28],1.97 µM
same,GI50,[29],0.688 µM
same,TGI,[29],> 100 µM
same,GI50,[30],2.95 µM
same,TGI,[30],9.13 µM
same,GI50,[31],0.422 µM
same,TGI,[31],1.89 µM
same,GI50,[32],0.353 µM
same,TGI,[32],11 µM
same,GI50,[33],0.314 µM
same,TGI,[33],1.47 µM
same,GI50,[34],2.66 µM
same,TGI,[34],7.96 µM
same,GI50,[35],2.9 µM
same,TGI,[35],9.09 µM
same,GI50,[36],0.346 µM
same,TGI,[36],5.65 µM
same,GI50,[37],1.44 µM
same,TGI,[37],4.35 µM
same,GI50,[38],0.754 µM
same,TGI,[38],6.12 µM
same,GI50,[39],9.67 µM
same,TGI,[39],> 100 µM
same,GI50,[40],0.41 µM
same,TGI,[40],1.65 µM
same,GI50,[41],1.07 µM
same,TGI,[41],12.8 µM
same,GI50,[42],0.345 µM
same,TGI,[42],42.4 µM
same,GI50,[43],1.28 µM
same,TGI,[43],2.79 µM
same,GI50,[44],0.858 µM
same,TGI,[44],2.25 µM
same,GI50,[45],1.81 µM
same,TGI,[45],3.78 µM
same,GI50,[46],1.05 µM
same,TGI,[46],4.95 µM
same,GI50,[47],1.31 µM
same,TGI,[47],4.83 µM
same,GI50,[48],2.33 µM
same,TGI,[48],9.36 µM
same,GI50,[49],2.12 µM
same,TGI,[49],7.58 µM
same,GI50,[50],1.76 µM
same,TGI,[50],3.8 µM
same,GI50,[51],0.65 µM
same,TGI,[51],> 100 µM
same,GI50,[52],1.78 µM
same,TGI,[52],> 100 µM
same,GI50,[53],2.05 µM
same,TGI,[53],7.89 µM
same,GI50,[54],3.32 µM
same,TGI,[54],19.2 µM
same,GI50,[55],1.72 µM
same,TGI,[55],4.62 µM
same,GI50,[56],1.55 µM
same,TGI,[56],3.01 µM
same,GI50,[57],1.27 µM
same,TGI,[57],4.39 µM
CN1CCN(c2ccc(Nc3nc(N4CCN(S(=O)(=O)c5ccc(F)cc5)CC4)c4sccc4n3)cc2)CC1,GI50,[2],19.2 µM
same,TGI,[2],34.5 µM
same,GI50,[3],1.87 µM
same,TGI,[3],4.44 µM
same,GI50,[5],17.8 µM
same,TGI,[5],53.1 µM
same,GI50,[6],2.98 µM
same,TGI,[6],10.1 µM
same,GI50,[7],2.39 µM
same,TGI,[7],6.78 µM
same,GI50,[9],1.97 µM
same,TGI,[9],3.76 µM
same,GI50,[10],3.95 µM
same,TGI,[10],22.9 µM
same,GI50,[11],1.69 µM
same,TGI,[11],3.23 µM
same,GI50,[13],1.67 µM
same,TGI,[13],3.15 µM
same,GI50,[14],2.07 µM
same,TGI,[14],4.25 µM
same,GI50,[15],11.5 µM
same,TGI,[15],> 100 µM
same,GI50,[16],7.3 µM
same,TGI,[16],24.1 µM
same,GI50,[17],17.8 µM
same,TGI,[17],55.4 µM
same,GI50,[18],1.83 µM
same,TGI,[18],3.6 µM
same,GI50,[19],2.19 µM
same,TGI,[19],4.74 µM
same,GI50,[20],2.13 µM
same,TGI,[20],5.73 µM
same,GI50,[21],2.02 µM
same,TGI,[21],3.97 µM
same,GI50,[23],1.84 µM
same,TGI,[23],3.56 µM
same,GI50,[24],1.72 µM
same,TGI,[24],3.15 µM
same,GI50,[25],1.66 µM
same,TGI,[25],3.18 µM
same,GI50,[26],1.9 µM
same,TGI,[26],3.4 µM
same,GI50,[27],1.77 µM
same,TGI,[27],3.26 µM
same,GI50,[28],1.5 µM
same,TGI,[28],2.89 µM
same,GI50,[29],2.45 µM
same,TGI,[29],6.05 µM
same,GI50,[30],18.7 µM
same,TGI,[30],48.2 µM
same,GI50,[31],4.35 µM
same,TGI,[31],18.1 µM
same,GI50,[32],1.86 µM
same,TGI,[32],3.45 µM
same,GI50,[33],1.64 µM
same,TGI,[33],3.12 µM
same,GI50,[58],2 µM
same,TGI,[58],4.42 µM
same,GI50,[34],1.91 µM
same,TGI,[34],3.51 µM
same,GI50,[35],2 µM
same,TGI,[35],4.2 µM
same,GI50,[36],2.36 µM
same,TGI,[36],5.94 µM
same,GI50,[38],2.13 µM
same,TGI,[38],5.11 µM
same,GI50,[39],2.28 µM
same,TGI,[39],4.98 µM
same,GI50,[40],1.61 µM
same,TGI,[40],3.14 µM
same,GI50,[43],1.75 µM
same,TGI,[43],3.18 µM
same,GI50,[44],19.7 µM
same,TGI,[44],39.2 µM
same,GI50,[45],1.68 µM
same,TGI,[45],3.15 µM
same,GI50,[46],1.68 µM
same,TGI,[46],3.05 µM
same,GI50,[48],1.73 µM
same,TGI,[48],3.25 µM
same,GI50,[49],2.64 µM
same,TGI,[49],8.71 µM
same,GI50,[50],11 µM
same,TGI,[50],26.8 µM
same,GI50,[51],2.01 µM
same,TGI,[51],4.85 µM
same,GI50,[52],1.8 µM
same,TGI,[52],3.33 µM
same,GI50,[54],2.61 µM
same,TGI,[54],7.37 µM
same,GI50,[55],1.58 µM
same,TGI,[55],3.19 µM
same,GI50,[56],1.71 µM
same,TGI,[56],3.15 µM
same,GI50,[57],13.4 µM
same,TGI,[57],29.1 µM
